Experimental data published in patent publication US4464385A, “Treatment of diabetic complications with hydantoins” (Alcon Laboratories, Inc., priority 1982, dated 1984).

Tested on: cataracts in rats
Test: Prevention or retardation of cataracts in galactose-fed rats
Assay type: in vivo, rat
Conditions: 30% galactose diet, A,C,E 0.0025%, B,D 0.01%
Procedure: The compounds to be tested were:
Test compound/diet mixtures were formulated as follows: […]
Similarly, the 0.01% level was designed to provide a drug concentration of 20 mg per kilogram per day.
All animals were fed the Purina Laboratory Chow and water, ad libitum for a two day acclimatization period. The indicated test compound/diet mixture then was introduced to all animals on Study Day 1 and the animals were maintained on this diet throughout thirty days of the study.
Sufficient amounts of test compound/diet mixture were maintained in the food hoppers to allow the animals to eat ad libitum. All aliquots of test compound/diet mixture added to the food hoopers were weighed and the weights, as well as day of addition, recorded.
Twelve animals were assigned to each treatment with each compound at the indicated percentage by total weight of feed. All eyes were examined with a handheld ophthalmoscope and/or penlight.

CSc1ccc2c(c1)C1(CCO2)NC(=O)NC1=O (stereo not drawn) [A]
18 eyes: Number of Eyes Observed, ± (Study Day 5) | Number of Eyes Observed, S (snowflake) (Study Day 20) | Number of Eyes Observed, S (snowflake) (Study Day 22)
4.2%: % of Total Eyes, + (vacuole) (Study Day 30)
16 eyes: Number of Eyes Observed, + (vacuole) (Study Day 8) | Number of Eyes Observed, + (vacuole) (Study Day 14) | Number of Eyes Observed, S (snowflake) (Study Day 18)
75.0%: % of Total Eyes, S (snowflake) (Study Day 20) | % of Total Eyes, S (snowflake) (Study Day 22)
8 eyes: Number of Eyes Observed, ± (Study Day 6) | Number of Eyes Observed, + (vacuole) (Study Day 18)
2 eyes: Number of Eyes Observed, - (Normal) (Study Day 5) | Number of Eyes Observed, - (Normal) (Study Day 6) | Number of Eyes Observed, - (Normal) (Study Day 8) | Number of Eyes Observed, - (Normal) (Study Day 10) | Number of Eyes Observed, + (vacuole) (Study Day 26) | Number of Eyes Observed, + (vacuole) (Study Day 28) | Number of Eyes Observed, N (nuclear cataract) (Study Day 28)
25.0%: % of Total Eyes, + (vacuole) (Study Day 20) | % of Total Eyes, + (vacuole) (Study Day 22)
91.7%: % of Total Eyes, S (snowflake) (Study Day 26)
16.7%: % of Total Eyes, + (vacuole) (Study Day 5) | % of Total Eyes, S (snowflake) (Study Day 12) | % of Total Eyes, + (vacuole) (Study Day 24)
0 eyes: Number of Eyes Observed, + (vacuole) (Study Day 2) | Number of Eyes Observed, N (nuclear cataract) (Study Day 2) | Number of Eyes Observed, S (snowflake) (Study Day 2) | Number of Eyes Observed, ± (Study Day 2) | Number of Eyes Observed, + (vacuole) (Study Day 3) | Number of Eyes Observed, N (nuclear cataract) (Study Day 3) | Number of Eyes Observed, S (snowflake) (Study Day 3) | Number of Eyes Observed, ± (Study Day 3) | Number of Eyes Observed, + (vacuole) (Study Day 4) | Number of Eyes Observed, N (nuclear cataract) (Study Day 4) | Number of Eyes Observed, S (snowflake) (Study Day 4) | Number of Eyes Observed, N (nuclear cataract) (Study Day 5) | Number of Eyes Observed, S (snowflake) (Study Day 5) | Number of Eyes Observed, N (nuclear cataract) (Study Day 6) | Number of Eyes Observed, S (snowflake) (Study Day 6) | Number of Eyes Observed, N (nuclear cataract) (Study Day 8) | Number of Eyes Observed, S (snowflake) (Study Day 8) | Number of Eyes Observed, N (nuclear cataract) (Study Day 10) | Number of Eyes Observed, - (Normal) (Study Day 12) | Number of Eyes Observed, N (nuclear cataract) (Study Day 12) | Number of Eyes Observed, - (Normal) (Study Day 14) | Number of Eyes Observed, N (nuclear cataract) (Study Day 14) | Number of Eyes Observed, - (Normal) (Study Day 16) | Number of Eyes Observed, N (nuclear cataract) (Study Day 16) | Number of Eyes Observed, ± (Study Day 16) | Number of Eyes Observed, - (Normal) (Study Day 18) | Number of Eyes Observed, N (nuclear cataract) (Study Day 18) | Number of Eyes Observed, ± (Study Day 18) | Number of Eyes Observed, - (Normal) (Study Day 20) | Number of Eyes Observed, N (nuclear cataract) (Study Day 20) | Number of Eyes Observed, ± (Study Day 20) | Number of Eyes Observed, - (Normal) (Study Day 22) | Number of Eyes Observed, N (nuclear cataract) (Study Day 22) | Number of Eyes Observed, ± (Study Day 22) | Number of Eyes Observed, - (Normal) (Study Day 24) | Number of Eyes Observed, N (nuclear cataract) (Study Day 24) | Number of Eyes Observed, ± (Study Day 24) | Number of Eyes Observed, - (Normal) (Study Day 26) | Number of Eyes Observed, N (nuclear cataract) (Study Day 26) | Number of Eyes Observed, ± (Study Day 26) | Number of Eyes Observed, - (Normal) (Study Day 28) | Number of Eyes Observed, ± (Study Day 28) | Number of Eyes Observed, - (Normal) (Study Day 30) | Number of Eyes Observed, ± (Study Day 30)
14 eyes: Number of Eyes Observed, + (vacuole) (Study Day 6)
1 eyes: Number of Eyes Observed, ± (Study Day 14) | Number of Eyes Observed, + (vacuole) (Study Day 30)
70.8%: % of Total Eyes, + (vacuole) (Study Day 12)
20 eyes: Number of Eyes Observed, S (snowflake) (Study Day 24) | Number of Eyes Observed, S (snowflake) (Study Day 28) | Number of Eyes Observed, S (snowflake) (Study Day 30)
5 eyes: Number of Eyes Observed, ± (Study Day 4)
8.3%: % of Total Eyes, - (Normal) (Study Day 5) | % of Total Eyes, - (Normal) (Study Day 6) | % of Total Eyes, - (Normal) (Study Day 8) | % of Total Eyes, - (Normal) (Study Day 10) | % of Total Eyes, + (vacuole) (Study Day 26) | % of Total Eyes, + (vacuole) (Study Day 28) | % of Total Eyes, N (nuclear cataract) (Study Day 28)
83.3%: % of Total Eyes, S (snowflake) (Study Day 24) | % of Total Eyes, S (snowflake) (Study Day 28) | % of Total Eyes, S (snowflake) (Study Day 30)
50.0%: % of Total Eyes, + (vacuole) (Study Day 16) | % of Total Eyes, S (snowflake) (Study Day 16)
100.0%: % of Total Eyes, - (Normal) (Study Day 2) | % of Total Eyes, - (Normal) (Study Day 3)
15 eyes: Number of Eyes Observed, + (vacuole) (Study Day 10)
17 eyes: Number of Eyes Observed, + (vacuole) (Study Day 12)
62.5%: % of Total Eyes, + (vacuole) (Study Day 10)
79.2%: % of Total Eyes, - (Normal) (Study Day 4)
33.3%: % of Total Eyes, + (vacuole) (Study Day 18)
19 eyes: Number of Eyes Observed, - (Normal) (Study Day 4)
29.2%: % of Total Eyes, S (snowflake) (Study Day 14)
24 eyes: Number of Eyes Observed, - (Normal) (Study Day 2) | Number of Eyes Observed, - (Normal) (Study Day 3)
3 eyes: Number of Eyes Observed, S (snowflake) (Study Day 10) | Number of Eyes Observed, ± (Study Day 12) | Number of Eyes Observed, N (nuclear cataract) (Study Day 30)
6 eyes: Number of Eyes Observed, ± (Study Day 8) | Number of Eyes Observed, + (vacuole) (Study Day 20) | Number of Eyes Observed, + (vacuole) (Study Day 22)
58.4%: % of Total Eyes, + (vacuole) (Study Day 6)
12.5%: % of Total Eyes, S (snowflake) (Study Day 10) | % of Total Eyes, N (nuclear cataract) (Study Day 30)
22 eyes: Number of Eyes Observed, S (snowflake) (Study Day 26)
7 eyes: Number of Eyes Observed, S (snowflake) (Study Day 14)
4 eyes: Number of Eyes Observed, + (vacuole) (Study Day 5) | Number of Eyes Observed, ± (Study Day 10) | Number of Eyes Observed, S (snowflake) (Study Day 12) | Number of Eyes Observed, + (vacuole) (Study Day 24)
0%: % of Total Eyes, + (vacuole) (Study Day 2) | % of Total Eyes, N (nuclear cataract) (Study Day 2) | % of Total Eyes, S (snowflake) (Study Day 2) | % of Total Eyes, + (vacuole) (Study Day 3) | % of Total Eyes, N (nuclear cataract) (Study Day 3) | % of Total Eyes, S (snowflake) (Study Day 3) | % of Total Eyes, + (vacuole) (Study Day 4) | % of Total Eyes, N (nuclear cataract) (Study Day 4) | % of Total Eyes, S (snowflake) (Study Day 4) | % of Total Eyes, N (nuclear cataract) (Study Day 5) | % of Total Eyes, S (snowflake) (Study Day 5) | % of Total Eyes, N (nuclear cataract) (Study Day 6) | % of Total Eyes, S (snowflake) (Study Day 6) | % of Total Eyes, N (nuclear cataract) (Study Day 8) | % of Total Eyes, S (snowflake) (Study Day 8) | % of Total Eyes, N (nuclear cataract) (Study Day 10) | % of Total Eyes, - (Normal) (Study Day 12) | % of Total Eyes, N (nuclear cataract) (Study Day 12) | % of Total Eyes, - (Normal) (Study Day 14) | % of Total Eyes, N (nuclear cataract) (Study Day 14) | % of Total Eyes, - (Normal) (Study Day 16) | % of Total Eyes, N (nuclear cataract) (Study Day 16) | % of Total Eyes, - (Normal) (Study Day 18) | % of Total Eyes, N (nuclear cataract) (Study Day 18) | % of Total Eyes, - (Normal) (Study Day 20) | % of Total Eyes, N (nuclear cataract) (Study Day 20) | % of Total Eyes, - (Normal) (Study Day 22) | % of Total Eyes, N (nuclear cataract) (Study Day 22) | % of Total Eyes, - (Normal) (Study Day 24) | % of Total Eyes, N (nuclear cataract) (Study Day 24) | % of Total Eyes, - (Normal) (Study Day 26) | % of Total Eyes, N (nuclear cataract) (Study Day 26) | % of Total Eyes, - (Normal) (Study Day 28) | % of Total Eyes, - (Normal) (Study Day 30)
66.7%: % of Total Eyes, + (vacuole) (Study Day 8) | % of Total Eyes, + (vacuole) (Study Day 14) | % of Total Eyes, S (snowflake) (Study Day 18)
12 eyes: Number of Eyes Observed, + (vacuole) (Study Day 16) | Number of Eyes Observed, S (snowflake) (Study Day 16)
